# Laboratory results reported in the supplement of paper PMC10307832.
# Assays:
# Experiment in all cases: relative viability (nuclei count vs DMSO), 5 days (fraction); higher = more cells survive
# [1] = compound: CN(NC(=O)CC(=O)NN(C)C(=S)c1ccccc1)C(=S)c1ccccc1 [Elesclomol]
# Procedure, shortened: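 MetaXpress counted nuclei in 4× images of lung cancer cell lines that had been fixed, permeabilised and Hoechst-stained in one step. Before that, cells in 1536-well plates were kept overnight at 37 °C, pinned with five √10-spaced library-drug doses on vehicle-anchored plates, and cultured 5 days without medium change. Viability takes treated-well nuclei over vehicle-well nuclei and uses the median across plates. Plates were accepted only at control CV below 25% and at least one doubling.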
# [2] = compound: CN(NC(=O)CC(=O)NN(C)C(=S)c1ccccc1)C(=S)c1ccccc1 [Elesclomol] + O=C(CCCCCCC(=O)Nc1ccccc1)NO [Vorinostat] (partner 1 µM)
# Procedure, shortened: (§1)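 Values are medians from duplicate plates. Each reflects relative viability, defined as the nuclei count of treated wells over that of vehicle wells. Lung cancer cell lines in 1536-well plates were pin-tool dosed one day after seeding with one drug alone or with a fixed anchor-drug dose plus five library-drug doses (not always all listed) in √10 steps, then fixed, stained and imaged at 4× after 5 days.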
# [3] = compound: CN(NC(=O)CC(=O)NN(C)C(=S)c1ccccc1)C(=S)c1ccccc1 [Elesclomol] + C[C@]1(O)C[C@@H](c2nc(-c3ccc4ccc(-c5ccccc5)nc4c3)c3c(N)nccn32)C1 [Linsitinib] (partner 1 µM)
# Procedure, shortened: as §1
# [4] = compound: CN(NC(=O)CC(=O)NN(C)C(=S)c1ccccc1)C(=S)c1ccccc1 [Elesclomol] + CCNC(=O)c1noc(-c2cc(C(C)C)c(O)cc2O)c1-c1ccc(CN2CCOCC2)cc1 [Luminespib] (partner 0.01 µM)
# Procedure, shortened: as §1
# [5] = compound: CN(NC(=O)CC(=O)NN(C)C(=S)c1ccccc1)C(=S)c1ccccc1 [Elesclomol] + C[C@@H](Oc1cc(-c2cnn(C3CCNCC3)c2)cnc1N)c1c(Cl)ccc(F)c1Cl [Crizotinib] (partner 1 µM)
# Procedure, shortened: as §1
Cell Line,relative viability ([1]; 0.003162 µM),relative viability ([1]; 0.01 µM),relative viability ([1]; 0.03162 µM),relative viability ([1]; 0.1 µM),relative viability ([2]; first compound 0.003162 µM),relative viability ([2]; first compound 0.01 µM),relative viability ([2]; first compound 0.03162 µM),relative viability ([2]; first compound 0.1 µM),relative viability ([3]; first compound 0.003162 µM),relative viability ([3]; first compound 0.01 µM),relative viability ([3]; first compound 0.03162 µM),relative viability ([3]; first compound 0.1 µM),relative viability ([4]; first compound 0.003162 µM),relative viability ([4]; first compound 0.01 µM),relative viability ([4]; first compound 0.03162 µM),relative viability ([4]; first compound 0.1 µM),relative viability ([5]; first compound 0.003162 µM),relative viability ([5]; first compound 0.01 µM),relative viability ([5]; first compound 0.03162 µM),relative viability ([5]; first compound 0.1 µM)
NCI-H1651,0.903,0.954,0.612,0.369,0.557,0.527,0.519,0.434,0.748,0.673,0.193,0.111,0.944,0.361,0.157,0.0878,0.81,0.833,0.951,0.531
NCI-H1666,1.01,0.933,0.755,0.542,1.05,0.91,0.836,0.714,0.833,0.358,0.321,0.202,0.962,0.788,0.521,0.484,0.745,0.271,0.235,0.15
NCI-H1734,0.976,0.794,0.32,0.127,0.859,0.592,0.207,0.101,0.907,0.745,0.8,0.154,0.189,0.14,0.122,0.108,0.66,0.586,0.382,0.0924
NCI-H1755,1.01,0.965,0.997,0.801,0.742,0.637,0.787,0.364,1.01,1.04,0.967,0.223,0.418,0.257,0.452,0.284,0.849,0.827,0.692,0.222
NCI-H1915,0.994,,1,0.606,0.517,0.324,0.573,0.205,1.09,,1.05,0.971,0.771,,0.768,0.331,0.888,,0.895,0.759
NCI-H1944,1.05,0.948,0.959,0.578,0.652,0.578,0.459,0.166,1.14,1.18,1.12,1.13,0.73,0.682,0.654,0.371,1.07,1.06,1,1.01
NCI-H1975,0.988,0.732,0.278,0.181,0.765,0.648,0.183,0.12,0.942,0.764,0.225,0.126,0.126,0.133,0.133,0.115,0.934,0.835,0.407,0.132
NCI-H1993,0.978,0.871,0.782,0.543,0.897,0.817,0.469,0.288,0.72,0.823,0.683,0.591,0.764,0.595,0.466,0.429,0.812,0.836,0.603,0.577
NCI-H2009,0.889,0.416,0.164,0.124,0.679,0.279,0.162,0.0886,1.25,0.677,0.183,0.142,0.977,0.494,0.167,0.116,1.06,0.644,0.137,0.109
NCI-H2023,0.907,0.305,0.204,0.0874,0.418,0.0842,0.0465,0.0461,0.697,0.319,0.209,0.0484,0.658,0.376,0.134,0.0435,0.44,0.248,0.0779,0.0736
NCI-H2085,0.998,0.873,0.569,0.385,0.835,0.783,0.451,0.308,0.786,0.596,0.432,0.247,0.421,0.393,0.321,0.248,0.881,0.495,0.339,0.226
NCI-H2087,0.987,0.743,0.624,0.313,0.528,0.448,0.431,0.313,1.01,0.607,0.587,0.696,0.158,0.189,0.139,0.0928,0.814,0.531,0.495,0.457
NCI-H2126,0.962,0.934,0.807,0.556,0.852,0.642,0.745,0.577,0.665,0.699,0.731,0.65,0.883,0.801,0.338,0.325,1.02,1.05,1.03,1.02
NCI-H2228,0.923,0.881,0.435,0.078,0.628,0.177,0.125,0.0717,0.694,0.541,0.365,0.0338,0.163,0.152,0.123,0.0703,0.381,0.312,0.143,0.0592
NCI-H2347,1.01,0.918,0.858,0.616,0.572,0.527,0.471,0.303,0.967,0.88,0.992,0.629,0.318,0.557,0.282,0.25,0.626,0.503,0.416,0.433
